Tests used:
D(2) dopamine receptor = D(2) dopamine receptor (Canis lupus familiaris, UniProt Q9GJU1)
[1] = biological target: T1, 5-hydroxytryptamine receptor 2C (Canis lupus familiaris, UniProt Q60F97)
T1 sequence (Q60F97 whole entry): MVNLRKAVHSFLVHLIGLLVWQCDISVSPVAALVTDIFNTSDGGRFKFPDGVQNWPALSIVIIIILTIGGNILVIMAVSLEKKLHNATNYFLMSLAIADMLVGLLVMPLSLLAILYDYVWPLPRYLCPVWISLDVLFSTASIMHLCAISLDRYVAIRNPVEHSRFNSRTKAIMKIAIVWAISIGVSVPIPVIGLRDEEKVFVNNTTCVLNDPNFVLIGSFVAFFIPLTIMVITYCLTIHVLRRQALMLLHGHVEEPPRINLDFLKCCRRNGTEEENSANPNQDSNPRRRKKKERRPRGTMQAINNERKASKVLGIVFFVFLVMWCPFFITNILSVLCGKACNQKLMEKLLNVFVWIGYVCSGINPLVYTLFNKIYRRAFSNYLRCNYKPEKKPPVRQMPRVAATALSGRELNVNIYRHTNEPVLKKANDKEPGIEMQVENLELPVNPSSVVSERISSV

Chain of D(2) dopamine receptor (Q9GJU1 whole entry): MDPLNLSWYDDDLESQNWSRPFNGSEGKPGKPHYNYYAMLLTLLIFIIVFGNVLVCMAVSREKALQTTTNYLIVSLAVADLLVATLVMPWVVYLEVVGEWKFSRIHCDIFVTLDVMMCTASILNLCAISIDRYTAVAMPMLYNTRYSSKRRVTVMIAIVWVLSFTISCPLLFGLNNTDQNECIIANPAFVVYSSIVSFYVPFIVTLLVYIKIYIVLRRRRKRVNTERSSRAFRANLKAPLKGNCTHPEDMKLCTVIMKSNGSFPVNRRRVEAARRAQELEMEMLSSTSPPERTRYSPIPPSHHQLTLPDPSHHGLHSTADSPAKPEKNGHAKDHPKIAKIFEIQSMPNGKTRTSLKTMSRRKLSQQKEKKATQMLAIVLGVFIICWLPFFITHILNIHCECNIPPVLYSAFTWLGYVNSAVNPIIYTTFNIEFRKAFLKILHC

SMILES | Ki (D(2) dopamine receptor) | Ki [1]
OCCN1CCN(CC/C=C2/c3ccccc3Sc3ccc(C(F)(F)F)cc32)CC1 [(cis) 2-{4-[3-(2-Trifluoromethyl-thioxanthen-9-ylidene)-propyl]-piperazin-1-yl}-ethanol(Flupentixol)] | 30 nM | 
NCCc1c[nH]c2ccc(O)cc12 [[3H]-5-HT] | > 10000 nM | 
O=C(c1ccc(F)cc1)C1CCN(CCn2c(=O)[nH]c3ccccc3c2=O)CC1 [3-(2-{4-[(4-fluorophenyl)carbonyl]piperidin-1-yl}ethyl)-1,2,3,4-tetrahydroquinazoline-2,4-dione] | 166 nM | 13 nM
CN1CCN2c3ccccc3Cc3ccccc3[C@H]2C1 [MIANSERIN (+)] | 161 nM | 2.8 nM
NCCc1ccc(O)c(O)c1 | > 10000 nM | 
